Assay results from patent publication US20230220331A1, “TEMPORARY TREATMENT MEDIUM, TREATMENT KIT, EMBRYOGENESIS ARREST INHIBITOR, EMBRYOGENESIS ARREST INHIBITORY METHOD, DEVELOPMENTAL ENGINEERING PRODUCT PREPARATION METHOD, TRANSPLANTATION METHOD, THERAPEUTIC METHOD, AND DEVELOPMENTAL ENGINEERING PRODUCT” (priority 2020, published 2023).

Assays:
Type in all cases: cell-based
[1] = system: Pronuclear stage embryo of C57BL/6J; assay: Flox mouse production by the 2STEP method, Mecp2 / Drb1 (Treatment Example 2)
Experimental: (§1) 1. Up to 3 hours before TAKE, Y-27632-added mWM medium (Y-27632 final concentration 10 μM, an example of the “temporary treatment medium” of this example), Y-27632-free mWM medium (an example of “normal medium” of this example), 5 drops of each medium were dropped on 35 mm Petri dish, and then covered with paraffin oil. For the drops, twice the number of the drops plates to be performed TAKE were prepared.
(§2) 2. Pronuclear stage embryos were collected, placed in Y-27632-added mWM medium, and cultured for about 30 minutes to 1 hour (temporary treatment).
(§3) 3. After that, the first TAKE was performed.
(§4) 3a. In the case of frozen eggs, after the first TAKE, they were placed in a Y-27632-added mWM medium and cultured for about 30 minutes to 1 hour (temporary treatment).
(§5) 3b. In the case of unfrozen eggs, after the first TAKE, they were placed in a Y-27632-added mWM medium and cultured under 37° C. and 5% CO2 (5% O2) conditions until the next day (temporary treatment).
(§6) 4. After the temporary treatment, the embryos were placed in Y-27632-free mWM medium and cultured at 37° C. and 5% CO2 (5% O2) conditions until the next day.
(§7) 5. Both were confirmed at the next day, and the embryos at the 2-cell stage were subjected to the second TAKE.
(§8) 6. After the second TAKE, the embryos were placed in Y-27632-added mWM medium and cultured for about 30 minutes to 1 hour (temporary treatment).
(§9) 7. Then, they were transferred to Y-27632-free mWM medium. If necessary, culture was continued or embryo transfer was performed.
Therefore, in this preparation example, the temporary treatment medium containing Y-27632 was temporarily treated before and after the electroporation (EP) of the 2STEP method. Pronuclear stage embryo of C57BL/6J (CLEA Japan, Inc.) were used as an in-vitro-culture and female MCH (CLEA Japan, Inc.) were used as recipient.
The present inventors conducted an experiment to obtain Flox mice by the 2STEP method targeting the Mecp2 gene.
In Table 2, “m” indicates treatment with the normal medium, and “Y” indicates temporary treatment with the temporary treatment medium. […] That is, “m->m” uses the normal medium in the both step, “m->Y” was temporarily treated with the temporary treatment medium only in the first electroporation step, and “Y->Y” was temporarily treated with the temporary treatment medium in both steps.
In each column, the proportions that the loxP sequence is inserted only on the left side by the first electroporation step (Left loxP), the loxP sequence is inserted only on the right side by the second electroporation step (Right loxP), and both loxP sequences inserted by both steps (2loxP) were respectively shown.

[2] = system: Pronuclear stage embryos of C57BL/6J; assay: Knockout mouse production by electroporation (TAKE), Mk-3 gene (Treatment Example 1)
Experimental: The TAKE was carried out according to the method described in Patent Document 2.
1. By 3 hours before TAKE, Y-27632-added mWM medium (Y-27632 final concentration 10 μM, an example of the “temporary treatment medium” of this example) and Y-27632-free mWM medium (an example of “normal medium” of this example) were dropped on 35 mm Petri dish in 5 drops, respectively, to prepare the drops covered with paraffin oil.
2. Pronuclear stage embryos were collected from the drops, placed in Y-27632-added mWM medium, and cultured for about 30 minutes to 1 hour (temporary treatment).
3. After that, TAKE was performed. At the time of this TAKE, as described above, the pronuclear stage embryo, after washing, was transferred to a genome editing solution for TAKE or an Opti-MEM solution. The same applied to the following processing.
4. After TAKE, the embryos were placed in Y-27632-added mWM medium (temporary treatment) and cultured under 37° C., 5% CO2, and ([…]) conditions until the next day (1 hour or more and within 12 hours).
5. If necessary, culture was continued or embryo transfer was performed in Y-free mWM medium.
According to a typical method, in the afternoon when female mice and rats were mated with males with vasoligation and confirmed to be plugged, about 10 each were transplanted into the left and right oviducts or uterus of plug-confirmed mature female mice and rats. […]

inbred mouse B6J embryos = assay: Generation of Flox inbred mice (individuals) by two-step method (Treatment Example 11)
Experimental: as §1, §2, §3, §4, §5, §6, §7, §8, §9
By using an inbred mouse (B6J in B6 strain) different from the inbred mouse of the treatment example 2 according to the first embodiment, knock-in is performed by the same two-step method as the above-mentioned treatment example 2, and further individual preparation is performed.

[3] = system: unfrozen pronuclear stage embryo (1 cell) of the inbred rat F344; assay: Genome-edited individuals by unfrozen 1-cell TAKE of F344 (Treatment Example 16); details: F344 unfrozen 1 cell; for NUMBER OF NEWBORNS: 2× gRNA, 14 pulses, 20% reduction rate; for KO rate (Large deletion) (%): KO individuals / newborns analyzed
Description: Next, in the same manner as in Treatment Example 1 according to Example 1, a knock-out by the electroporation method was also produced in an unfrozen pronuclear stage embryo (1 cell) of the inbred rat F344. The conditions at this time were that the gRNA concentration was twice the specified amount, the pulse was 14 times, and the reduction rate was 20%.

NOD-scid mouse embryos = assay: Bbox1 and IL2rg DKO screening in NOD-scid mice (Treatment Example 14)
Experimental: Then, in the same manner as in Treatment Example 7 of Example 1, in the NOD-scid strain, which is another strain of a severe combined immunodeficiency mouse, genome editing of multiple genes was performed, and individuals were produced. Here, individuals in which both the mBBOX1 and mIL2RG genes of NOD-scid mice were knocked out were prepared by the same treatment method as the above-mentioned treatment example used for BALB/c nude.

[4] = group Y → Y, 2STEP, Mecp2-Flox, blastocysts, listed as Y
[5] = group m → Y, 2STEP, target Mecp2-Flox
[6] = floxed Mecp2 2STEP (HIGH CONCENTRATION)
[7] = NOD-scid F0, Bbox1 and IL2rg, listed as temporary treatment medium

## C[C@@H](N)[C@H]1CC[C@H](C(=O)Nc2ccncc2)CC1 [Y-27632, trans-4-[(1R)-1-Aminoethyl]-N-4-pyrid inylcyclohexanecarboxamide]
[1]; 2STEP, Mecp2, neonates, Y-27632 added
  Flox neonates obtained (%): 4%
[1]; group Y → Y (temporary treatment in both steps), 2STEP, Mecp2-Flox
  Left loxP (proportion inserted): 1/15
[1]; group Y → Y, 2STEP, Mecp2-Flox
  Left loxP (%): (6.7%)
  Right loxP (%): (13.3%)
  Right loxP (proportion inserted): 2/15
[1]; group Y → Y, 2STEP, Mecp2-Flox, blastocysts
  2loxP (%), Flox blastocysts: 7%
[1]; [4]
  2loxP (%), Flox blastocysts: (6.7%)
  2loxP (proportion, Flox blastocysts): 1/15
[1]; [5]
  2loxP (%): (0%)
  2loxP (proportion, both loxP inserted): 0/17
  Left loxP (%): (5.9%)
  Left loxP (proportion inserted): 1/17
  Right loxP (%): (5.9%)
  Right loxP (proportion inserted): 1/17
[1]; two types of genes (Mecp2, Drb1)
  inbred strains of Flox mice obtained by the 2STEP method: obtained only from the experimental groups to which Y-27632 were added
[2]; C57BL/6J embryos cultured in Y-27632 medium before and after electroporation, Mk-3 knockout with two gRNAs, versus without Y-27632
  birth rate increased: about 5 times
[2]; C57BL/6J, Mk-3 knockout, Y-27632 before and after electroporation
  efficiency of non-homologous end joining (NHEJ): did not change
Inbred mouse B6J embryos; floxed Drb1 2STEP
  Flox individuals %: 2.6%
  NUMBER OF FLOX INDIVIDUALS: 1/39
Inbred mouse B6J embryos; [6]
  Flox individuals %: 3.9%
  NUMBER OF FLOX INDIVIDUALS: 2/51
[3]; 25 TAKE embryos, 1 recipient
  NUMBER OF NEWBORNS: 4
[3]; 25 TAKE embryos, 1 recipient, 4 newborns analyzed
  Number of KO individuals (large deletion): 0
[3]; 25 TAKE embryos
  KO rate (Large deletion) (%): (0%)
[3]; 75 TAKE embryos, 3 recipients
  NUMBER OF NEWBORNS: 16
[3]; 75 TAKE embryos, 3 recipients, 13 newborns analyzed
  Number of KO individuals (large deletion): 7
[3]; 75 TAKE embryos
  KO rate (Large deletion) (%): (53.8%)
NOD-scid mouse embryos; NOD-scid F0
  individuals mutated at Bbox1 Ex3 (chr. 2) (proportion): #U: unknown mutation (4/9) (4/9)
  individuals mutated at Il2rg (chr. X) Ex2 (proportion): #U: unknown mutation (4/9) (4/9)
  individuals mutated at Il2rg (chr. X) Ex3 (proportion): #U: unknown mutation (4/9) (4/9)
NOD-scid mouse embryos; [7]
  individuals with mutations in one of the two genes (%): 66.7%
  individuals with mutations in one of the two genes (proportion): 6 out of 9 and (6/9)
